Tests used:
hP2X2/3H = biological target: T1, hP2X2/3H (Homo sapiens, UniProt P56373+Q9UBL9); assay: Calcium uptake assay (P2X antagonist assay), P2X2/3 heteromer; format: cell-based; details: Ca influx (calcium uptake assay), hP2X2/3H; read-out: IC50 hP2X2/3H
T1 construct: expressed in transfected cells; host or cells: e.g. HEK293 or 1321N1
T1 sequence (Q9UBL9 1-471): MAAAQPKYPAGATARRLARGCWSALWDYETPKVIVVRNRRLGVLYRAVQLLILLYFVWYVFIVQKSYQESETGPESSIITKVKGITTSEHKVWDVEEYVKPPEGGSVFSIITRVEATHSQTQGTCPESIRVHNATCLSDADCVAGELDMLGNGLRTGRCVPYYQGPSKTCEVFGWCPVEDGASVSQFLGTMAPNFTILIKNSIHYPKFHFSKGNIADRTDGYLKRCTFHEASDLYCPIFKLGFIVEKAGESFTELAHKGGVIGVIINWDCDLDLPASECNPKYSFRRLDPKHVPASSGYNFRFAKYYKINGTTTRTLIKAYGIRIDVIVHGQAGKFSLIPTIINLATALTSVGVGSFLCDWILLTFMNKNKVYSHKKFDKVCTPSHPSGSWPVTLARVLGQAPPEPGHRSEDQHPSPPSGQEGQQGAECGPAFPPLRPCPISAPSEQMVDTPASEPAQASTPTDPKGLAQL
T1 sequence (P56373 1-397): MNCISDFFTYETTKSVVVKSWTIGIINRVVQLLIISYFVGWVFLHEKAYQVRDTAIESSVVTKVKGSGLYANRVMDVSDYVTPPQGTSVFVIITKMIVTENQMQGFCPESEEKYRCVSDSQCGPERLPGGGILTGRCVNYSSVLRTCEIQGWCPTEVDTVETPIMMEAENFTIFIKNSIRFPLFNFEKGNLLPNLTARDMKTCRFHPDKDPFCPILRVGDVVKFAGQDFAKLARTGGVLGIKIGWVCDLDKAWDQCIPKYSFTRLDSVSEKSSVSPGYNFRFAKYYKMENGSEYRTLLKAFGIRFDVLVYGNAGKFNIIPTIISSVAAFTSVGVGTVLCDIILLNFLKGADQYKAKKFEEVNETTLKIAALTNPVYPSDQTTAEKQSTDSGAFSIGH
Method in brief: (§1)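 Stably or transiently transfected HEK293 or 1321N1 cells; the heteromer is made by adding P2X3 to a P2X2-stable line, with heteromer function isolated pharmacologically. The peak-minus-baseline FLIPR calcium signal gives % inhibition and a 4-parameter-logistic IC50.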

hP2X3 = biological target: T2, hP2X3 (Homo sapiens, UniProt P56373); assay: Calcium uptake assay (P2X antagonist assay), P2X3 homomer; format: cell-based; details: Ca influx (calcium uptake assay), hP2X3; read-out: IC50 hP2X3
T2 construct: expressed in transfected cells; host or cells: e.g. HEK293 or 1321N1
T2 sequence (P56373 1-397): T1 sequence (P56373 1-397)
Method in brief: as §1

Row | Structure (SMILES) | IC50 (hP2X2/3H) | IC50 (hP2X3)
1 | Cc1ccc(-c2cc(OC3CCOC3)cc(C(=O)N[C@H](C)c3ccc(C)nc3)c2)cc1 (stereo partly drawn) [Compound 308, 4′-Methyl-N—((R)-1-(6-methylpyridin-3-yl)ethyl)-5-(tetrahydrofuran-3-yloxy)biphenyl-3-carboxamide] | < 0.1 µM | < 0.1 µM
2 | Cc1ccc(-c2cc(OCC3CCOC3)cc(C(=O)N[C@H](C)c3ccc(C)nc3)c2)cc1 (stereo partly drawn) [Compound 309] | < 0.1 µM | 0.1 to 0.5 µM
3 | Cc1ccc(-c2cc(OCC3CCCO3)cc(C(=O)N[C@H](C)c3ccc(C)nc3)c2)cc1 (stereo partly drawn) [Compound 310, 4′-Methyl-N—((R)-1-(6-methylpyridin-3-yl)ethyl)-5-((tetrahydrofuran-2-yl)methoxy)biphenyl-3-carboxamide] | < 0.1 µM | < 0.1 µM
4 | Cc1ccc(-c2cc(C(=O)N[C@H](C)c3ccc(C)nc3)cc(C(C)O)c2)c(C#N)c1 (stereo partly drawn) [Compound 311] | < 0.1 µM | < 0.1 µM
5 | Cc1ccc(-c2cc(OCC3CCCO3)cc(C(=O)N[C@H](C)c3ccc(C)nc3)c2)c(C#N)c1 (stereo partly drawn) [Compound 312] | < 0.1 µM | < 0.1 µM
6 | Cc1ccc(-c2cc(OCC3CCOC3)cc(C(=O)N[C@H](C)c3ccc(C)nc3)c2)c(C#N)c1 (stereo partly drawn) [Compound 313] | < 0.1 µM | < 0.1 µM
7 | Cc1ccc(-c2cc(OC3CCOC3)cc(C(=O)N[C@H](C)c3ccc(C)nc3)c2)c(C#N)c1 (stereo partly drawn) [Compound 314] | < 0.1 µM | < 0.1 µM
8 | Cc1ccc(-c2cc(OCC(O)CO)cc(C(=O)N[C@H](C)c3ccc(C)nc3)c2)c(C#N)c1 (stereo partly drawn) [Compound 315, 2′-Cyano-5-(2,3-dihydroxypropoxy)-4′-methyl-N—((R)-1-(6-methylpyridin-3-yl)ethyl)biphenyl-3-carboxamide] | 0.1 to 0.5 µM | < 0.1 µM
9 | COCC(C)Oc1cc(C(=O)N[C@H](C)c2ccc(C)nc2)cc(-c2ccc(C)cc2C#N)c1 (stereo partly drawn) [Compound 316] | < 0.1 µM | < 0.1 µM
10 | Cc1ccc(-c2cc(OCC3COCCO3)cc(C(=O)N[C@H](C)c3ccc(C)nc3)c2)c(C#N)c1 (stereo partly drawn) [Compound 317] | < 0.1 µM | < 0.1 µM
11 | Cc1ccc(-c2cc(OCC(O)CO)cc(C(=O)N[C@H](C)c3ccc(C)nc3)c2)cc1 (stereo partly drawn) [Compound 318] | < 0.1 µM | < 0.1 µM
12 | Cc1ccc(-c2cc(C(=O)N[C@H](C)c3ccc(C)nc3)cc(C(O)CO)c2)nc1 (stereo partly drawn) [Compound 319] | 0.1 to 0.5 µM | < 0.1 µM
13 | Cc1ccc(-c2cc(CO)cc(C(=O)N[C@H](C)c3ccc(C)nc3)c2)cc1 [Compound 320] | 0.1 to 0.5 µM | < 0.1 µM
14 | Cc1ccc(-c2cc(C(=O)N[C@H](C)c3ccc(C)nc3)cc(C(C)O)c2)cc1 (stereo partly drawn) [Compound 321] | < 0.1 µM | < 0.1 µM
15 | Cc1ccc(-c2cc(C(=O)N[C@H](C)c3cnc(C)nc3)cc(S(C)(=O)=O)c2)nc1 [Compound 322] | 0.1 to 0.5 µM | < 0.1 µM
16 | COCC(CO)Oc1cc(C(=O)N[C@H](C)c2ccc(C)nc2)cc(-c2ccc(C)cc2)c1 (stereo partly drawn) [Compound 323] | < 0.1 µM | < 0.1 µM
17 | Cc1ccc(-c2cc(OCC3CNCCO3)cc(C(=O)N[C@H](C)c3ccc(C)nc3)c2)c(C#N)c1 (stereo partly drawn) [Compound 324, 2′-Cyano-4′-methyl-N—((R)-1-(6-methylpyridin-3-yl)ethyl)-5-(morpholin-2-ylmethoxy)biphenyl-3-carboxamide] | 0.1 to 0.5 µM | < 0.1 µM
18 | Cc1ccc(-c2cc(OCC3CNCCO3)cc(C(=O)N[C@H](C)c3ccc(C)nc3)c2)cc1 (stereo partly drawn) [Compound 325] | 0.1 to 0.5 µM | < 0.1 µM
19 | Cc1ccc(-c2cc(OCC3COCCO3)cc(C(=O)N[C@H](C)c3ccc(C)nc3)c2)cc1 (stereo partly drawn) [Compound 326] | 0.1 to 0.5 µM | < 0.1 µM
20 | Cc1ccc(-c2cc(OC3CNCC3O)cc(C(=O)N[C@H](C)c3ccc(C)nc3)c2)cc1 (stereo partly drawn) [Compound 327] | 0.1 to 0.5 µM | < 0.1 µM
21 | COCC(C)Oc1cc(C(=O)N[C@H](C)c2ccc(C)nc2)cc(-c2ccc(C)cn2)c1 (stereo partly drawn) [Compound 328] | < 0.1 µM | < 0.1 µM
22 | Cc1ccc(-c2cc(OCCO)cc(C(=O)N[C@H](C)c3ccc(C)nc3)c2)nc1 [Compound 329] | 0.1 to 0.5 µM | < 0.1 µM
23 | Cc1ccc(-c2cc(C(=O)N[C@H](C)c3ccc(C)nc3)cc(C(O)c3cncn3C)c2)cc1 (stereo partly drawn) [Compound 330] | < 0.1 µM | < 0.1 µM

Row | Structure (SMILES) | IC50 (hP2X2/3H) | IC50 (hP2X3)
24 | Cc1ccc(-c2cc(C(=O)N[C@H](C)c3ccc(C)nc3)cc(C(C)O)c2)nc1 (stereo partly drawn) [Compound 331] | < 0.1 µM | < 0.1 µM
25 | Cc1ccc(-c2cc(OCC3COCCO3)cc(C(=O)N[C@H](C)c3ccc(C)nc3)c2)nc1 (stereo partly drawn) [Compound 332] | 0.1 to 0.5 µM | < 0.1 µM
26 | Cc1ccc(-c2cc(OC3CCOC3)cc(C(=O)N[C@H](C)c3ccc(C)nc3)c2)nc1 (stereo partly drawn) [Compound 333] | < 0.1 µM | < 0.1 µM
27 | Cc1ccc(-c2cc(OCC3CCOC3)cc(C(=O)N[C@H](C)c3ccc(C)nc3)c2)nc1 (stereo partly drawn) [Compound 334] | < 0.1 µM | < 0.1 µM
28 | Cc1ccc(-c2cc(OCC3CCCO3)cc(C(=O)N[C@H](C)c3ccc(C)nc3)c2)nc1 (stereo partly drawn) [Compound 335] | < 0.1 µM | < 0.1 µM
29 | Cc1ccc(-c2cc(OC3COCC3O)cc(C(=O)N[C@H](C)c3ccc(C)nc3)c2)cc1 (stereo partly drawn) [Compound 336, 5-(4-Hydroxytetrahydrofuran-3-yloxy)-4′-methyl-N—((R)-1-(6-methylpyridin-3-yl)ethyl)biphenyl-3-carboxamide] | < 0.1 µM | < 0.1 µM
30 | Cc1ccc(-c2cc(OC3COCC3O)cc(C(=O)N[C@H](C)c3ccc(C)nc3)c2)c(C#N)c1 (stereo partly drawn) [Compound 337] | < 0.1 µM | < 0.1 µM
31 | Cc1ccc(-c2cc(OC3CNCC3O)cc(C(=O)N[C@H](C)c3ccc(C)nc3)c2)c(C#N)c1 (stereo partly drawn) [Compound 338, 2′-Cyano-5-(4-hydroxypyrrolidin-3-yloxy)-4′-methyl-N—((R)-1-(6-methylpyridin-3-yl)ethyl)biphenyl-3-carboxamide] | 0.1 to 0.5 µM | < 0.1 µM
32 | Cc1ccc(-c2cc(OC3CNCC3O)cc(C(=O)N[C@H](C)c3ccc(C)nc3)c2)nc1 (stereo partly drawn) [Compound 339] | 0.1 to 0.5 µM | < 0.1 µM
33 | Cc1ccc(-c2cc(CN(C)C)cc(C(=O)N[C@H](C)c3ccc(C)nc3)c2)cc1 [Compound 340, (R)-5-((Dimethylamino)methyl)-4′-methyl-N-(1-(6-methylpyridin-3-yl)ethyl)biphenyl-3-carboxamide] | 0.1 to 0.5 µM | < 0.1 µM
34 | Cc1ccc(-c2cc(Oc3nc(Cl)cs3)cc(C(=O)N[C@H](C)c3ccc(C)nc3)c2)cc1 [Compound 341] | < 0.1 µM | 0.1 to 0.5 µM
35 | CCN(CC)CC(O)c1cc(C(=O)N[C@H](C)c2ccc(C)nc2)cc(-c2ccc(C)cn2)c1 (stereo partly drawn) [Compound 342, 3-(2-(Diethylamino)-1-hydroxyethyl)-5-(5-methylpyridin-2-yl)-N—((R)-1-(6-methylpyridin-3-yl)ethyl)benzamide] | 0.1 to 0.5 µM | < 0.1 µM
36 | CCN(CC)CC(O)c1cc(C(=O)N[C@H](C)c2ccc(C)nc2)cc(-c2ccc(C)cc2C#N)c1 (stereo partly drawn) [Compound 343] | 0.1 to 0.5 µM | < 0.1 µM
37 | Cc1ccc(-c2cc(OCC(O)CO)cc(C(=O)N[C@H](C)c3ccc(C)nc3)c2)nc1 (stereo partly drawn) [Compound 344] | 0.1 to 0.5 µM | < 0.1 µM
38 | Cc1ccc(-c2cc(OC(C)CO)cc(C(=O)N[C@H](C)c3ccc(C)nc3)c2)nc1 (stereo partly drawn) [Compound 345] | < 0.1 µM | < 0.1 µM
39 | Cc1ccc(-c2cc(OC(C)CO)cc(C(=O)N[C@H](C)c3ccc(C)nc3)c2)cc1 (stereo partly drawn) [Compound 346] | < 0.1 µM | < 0.1 µM
40 | Cc1ccc(-c2cc(OC3COCC3O)cc(C(=O)N[C@H](C)c3ccc(C)nc3)c2)nc1 (stereo partly drawn) [Compound 347] | 0.1 to 0.5 µM | < 0.1 µM
41 | COCC(CO)Oc1cc(C(=O)N[C@H](C)c2ccc(C)nc2)cc(-c2ccc(C)cn2)c1 (stereo partly drawn) [Compound 348] | < 0.1 µM | < 0.1 µM
42 | Cc1ccc(-c2cc(OCC3CNCCO3)cc(C(=O)N[C@H](C)c3ccc(C)nc3)c2)nc1 (stereo partly drawn) [Compound 349] | 0.1 to 0.5 µM | < 0.1 µM
43 | Cc1ccc(-c2cc(C(=O)NCc3ncc(C(F)(F)F)cc3Cl)cc(S(C)(=O)=O)c2)nc1 [Compound 350] | 0.1 to 0.5 µM | < 0.1 µM
44 | Cc1ccc(-c2cc(C(=O)NCc3ccn4ccnc4c3)cc(S(C)(=O)=O)c2)nc1 [Compound 351] | 0.1 to 0.5 µM | < 0.1 µM
45 | Cc1ccc(-c2cc(C(=O)NCc3ccc4c(c3)S(=O)(=O)CC4)cc(S(C)(=O)=O)c2)nc1 [Compound 352] | 0.1 to 0.5 µM | < 0.1 µM

Source: patent US8946439B2, “Amide compounds, compositions and uses thereof” (Evotec AG, priority 2008, dated 2015)
